Laboratory results: patent publication US10456414B2, “Methods for treating HCV” (priority 2011, dated 2019)
“And” between values parts separate entries of the source, which are not always exact repeats. Identical values can stand only once. Like-named read-outs stand apart in the source and are kept apart here. Marks after values point to notes of the source that are not given here.

Experiments:
genotype 1b replicon RNA = experiment: Replicon RNA suppression, 6 day assay, QRT-PCR
[1] = tested on: Huh-7 cells carrying a HCV genotype 1a replicon; experiment: Cytotoxicity combination studies with Compound 4, MacSynergy II; details: for Antagonism Volume (cytotoxicity) / Synergy Volume (cytotoxicity): in combination with Compound 4, mean ± standard deviation
HCV genotype 1a replicon [2] = experiment: Antiviral combination studies with Compound 4, MacSynergy II; details: for Antagonism Volume / Synergy Volume: in combination with Compound 4, mean ± standard deviation; for Interaction: in combination with Compound 4
[3] = tested on: HCV 1b replicon system (Huh-luc); experiment: Antiviral combination studies with Compound 6, MacSynergy II; details: for Antagonism Volume / Synergy Volume: in combination with Compound 6, mean ± standard deviation; for Interaction: in combination with Compound 6
[4] = tested on: Genotype 1 b replicon cells; experiment: Compound combination replicon cure assay, colony formation; details: 6 days treatment at the same concentrations, then G418 for 14 days
[5] = tested on: 1b Huh-luc replicon cells; experiment: Antiviral combination studies with Compound 5, MacSynergy II; type: cell-based, HCV; details: for Antagonism Volume / Synergy Volume: in combination with Compound 5, mean ± standard deviation; for Interaction: in combination with Compound 5
Protocol: Combination data were analyzed based on the Bliss Independence model using MacSynergy II software. Results of the combination assays were expressed as mean synergy and antagonism volumes (nM^2) calculated at 95% confidence from two independent experiments performed in triplicate.

[6] = Drug-drug interactions of co-administered compounds (exposure); type: in vivo
Protocol: With respect to Compounds 9 and 10, or pharmaceutically acceptable salts thereof, the composition may comprise 10 mg to 1000 mg per day (according to US 2010/0298257). With respect to Compound 11, or pharmaceutically acceptable salts thereof, the composition may comprise 1 mg to 1000 mg per day (according to US 2010/0081628).

[7] = HCV genotype 1a replicon assay, CC50 by calcein AM (Biological Example 8); details: human, Huh-7 cells carrying an HCV genotype 1a replicon
[8] = tested on: Huh-7 cells carrying a HCV genotype 1a replicon; experiment: HCV genotype 1a replicon assay, CC50 by calcein AM (Biological Example 3); type: cell-based; details: genotype 1a replicon cells, 3 days
Protocol: The CC50 assay was performed first.

HCV genotype 1a replicon [9] = experiment: HCV genotype 1a replicon assay, EC50 (Biological Example 3); type: cell-based; details: 3 days
[10] = tested on: Huh-7 cells carrying an HCV genotype 1a replicon
HCV genotype 1a replicon [11] = experiment: HCV genotype 1a replicon assay, EC50 (Biological Example 8); details: Hepatitis C virus, 72 h
HCV genotype 1a replicon [12] = experiment: Antiviral combination studies with Compound 10, MacSynergy II; details: in combination with Compound 10
[13] = tested on: GT3a wild-type chimeric replicon (3a NS5B in GT1b backbone); experiment: microbe, parasite or virus in culture; type: cell-based, HCV; details: Hepatitis C virus, 72 h, read-out: EC50 WT
[14] = tested on: GT3a NS5B S282T mutant chimeric replicon; experiment: microbe, parasite or virus in culture; type: cell-based, HCV; details: Hepatitis C virus, GT3A, 72 h, read-out: EC50 S282T
[15] = tested on: GT2b wild-type chimeric replicon (2b NS5B in GT1b backbone); experiment: microbe, parasite or virus in culture; type: cell-based, HCV; details: Hepatitis C virus, 72 h, read-out: EC50 WT
[16] = tested on: GT4a wild-type chimeric replicon (4a NS5B in GT1b backbone); experiment: microbe, parasite or virus in culture; type: cell-based, HCV; details: Hepatitis C virus, 72 h, read-out: EC50 WT
[17] = tested on: GT4a NS5B S282T mutant chimeric replicon; experiment: microbe, parasite or virus in culture; type: cell-based, HCV; details: Hepatitis C virus, GT4A, 72 h, read-out: EC50 S282T
[18] = human, dose of 800 mg/day; cited from earlier work
[19] = tested on: GT1b NS5B S282T mutant replicon; experiment: microbe, parasite or virus in culture; type: cell-based, HCV; details: Hepatitis C virus, GT1B, 72 h, read-out: EC50 S282T
GT1b wild-type replicon = experiment: microbe, parasite or virus in culture; type: cell-based, HCV; details: Hepatitis C virus, 72 h, 3 days
[20] = tested on: GT2b NS5B S282T mutant chimeric replicon; experiment: microbe, parasite or virus in culture; type: cell-based, HCV; details: Hepatitis C virus, GT2B, 72 h, read-out: EC50 S282T
GT2a wild-type replicon = experiment: microbe, parasite or virus in culture; type: cell-based, HCV; details: Hepatitis C virus, 72 h, 3 days
[21] = tested on: GT2a NS5B S282T mutant replicon; experiment: microbe, parasite or virus in culture; type: cell-based, HCV; details: Hepatitis C virus, GT2A, 72 h, read-out: EC50 S282T
[22] = single compound at the listed concentration, 6 days, relative to DMSO control (Table XIV)
[23] = Hepatitis C virus, 72 h, average ± standard deviation, read-out: EC50

Compound: Fc1ccccc1-c1nc2ccn(Cc3ccc(-c4ccc(C(F)(F)F)cc4C(F)(F)F)nn3)cc-2n1 [Compound 1, 5-((6-(2,4-bis(trifluoromethyl)phenyl)pyridazin-3-yl)methyl)-2-(2-fluorophenyl)-5H-imidazo[4,5-c]pyridine]
- Replicon RNA log drop (genotype 1b replicon RNA): −1.0 log
- Replicon RNA log drop (genotype 1b replicon RNA; [22]): −1.0 log
- Interaction (cytotoxicity) ([1]; in combination with Compound 4): Additivity (Additivity: ≤25 and >−25 nM^2%)
- Antagonism Volume (cytotoxicity) [1]: 0 ± 1 nM^2%
- Synergy Volume (cytotoxicity) [1]: 13 ± 11 nM^2%
- Antagonism Volume (HCV genotype 1a replicon [2]): −1 ± 2 nM^2%
- Synergy Volume (HCV genotype 1a replicon [2]): 34 ± 26 nM^2%
- Antagonism Volume [3]: −17 ± 0.7 nM^2
- Synergy Volume [3]: 34 nM^2 and 34 ± 9.9 nM^2
- Uncured colony number [4]: 657
- Antagonism Volume [5]: 0 ± 0 nM^2
- Synergy Volume [5]: 70 ± 26 nM^2
- increase of exposure of Compound 1 by Compound 2 ([6]; co-administered with Compound 2): 2-3 ×
- effect on drug metabolizing systems ([6]; in vivo): does not appear that Compound 1 affects drug metabolizing systems
- CC50 at 3 days [7]: > 44400 nM
- CC50 ([8]; read-out: CC50): > 44400 nM
- EC50 (HCV genotype 1a replicon [9]; [23]): 19 ± 8 nM

Compound: COc1ccc2c(O[C@@H]3C[C@H]4C(=O)N[C@]5(P(=O)(O)Cc6c(F)cccc6F)C[C@H]5CCCCCCC[C@H](NC(=O)OC5CCCC5)C(=O)N4C3)cc(-c3csc(NC(C)C)n3)nc2c1Cl [Compound 2, (2R,6S,13aR,14aS,16aS)-2-(8-chloro-2-(2-(isopropylamino)thiazol-4-yl)-7-methoxyquinolin-4-yloxy)-6-(cyclopentyloxycarbonylamino)-5,16-dioxooctadecahydrocyclopropa[e]pyrrolo[1,2-a][1,4]diazacyclopentadecin-14a-yl(2,6-diflurobenzyl)phosphinic acid]
- Interaction (cytotoxicity) ([1]; in combination with Compound 4): Additivity (Additivity: ≤25 and >−25 nM^2%)
- Antagonism Volume (cytotoxicity) [1]: 0 ± 0 nM^2%
- Synergy Volume (cytotoxicity) [1]: 17 ± 14 nM^2%
- Interaction (HCV genotype 1a replicon [2]): Additivity (Additivity: ≤25 and >−25 nM^2%)
- Antagonism Volume (HCV genotype 1a replicon [2]): −2 ± 3 nM^2%
- Synergy Volume (HCV genotype 1a replicon [2]): 22 ± 14 nM^2%
- Interaction [3]: Moderate Synergy
- Antagonism Volume [3]: −0.7 ± 0.7 nM^2
- Synergy Volume [3]: 52 nM^2 and 52 ± 5.1 nM^2
- Interaction [5]: Additive
- Antagonism Volume [5]: −7 ± 7 nM^2
- Synergy Volume [5]: 22 ± 12 nM^2
- CC50 ([8]; read-out: CC50): > 22200 nM
- EC50 (HCV genotype 1a replicon [9]; [23]): 496 ± 135 nM

Compound: CC(C)OC(=O)[C@H](C)N[P@](=O)(OC[C@H]1O[C@@](C#N)(c2ccc3c(N)ncnn23)[C@](C)(O)[C@@H]1OC(=O)C(C)C)Oc1ccccc1 [Compound 4]
- Compound concentration able to induce replicon RNA 1-1.5 log drop in a 6 day assay (genotype 1b replicon RNA; genotype 1b replicon cells, 6 days): 1000 nM
- Replicon RNA log drop (genotype 1b replicon RNA; [22]): −1.2 log
- Interaction (cytotoxicity) ([1]; in combination with Ribavirin (Table IX)): Additivity (Additivity: ≤25 and >−25 nM^2%)
- Uncured colony number [4]: 1054
- Antagonism Volume [5]: −1 ± 3 nM^2
- Synergy Volume [5]: 26 ± 28 nM^2
- EC50 (HCV genotype 1a replicon [9]; [23]): 201 ± 74 nM

Compound: CC1=CC[C@H](C(=O)N(c2cc(C#CC(C)(C)C)sc2C(=O)O)[C@H]2CC[C@](O)(CO[C@H]3CCOC3)CC2)CC1 [Compound 5, 5-(3,3-dimethylbut-1-yn-1-yl)-3-[(cis-4-hydroxy-4-{[(3S)-tetrahydrofuran-3-yloxy]methyl}cyclohexyl){[(1R)-4-methylcyclohex-3-en-1-yl]carbonyl}amino]thiophene-2-carboxylic acid]
- Cytotoxicity at Highest Concentration of Compound Combinations (% inhibition on cell growth) ([10]; with 320 nM Compound 10 and the highest concentration of the listed compound): 4.3 ± 2.9%
- EC50 (HCV genotype 1a replicon [11]): 14 nM
- Interaction (HCV genotype 1a replicon [12]): Additive
- Interaction (cytotoxicity) ([1]; in combination with Compound 4): Additivity (Additivity: ≤25 and >−25 nM^2%)
- Antagonism Volume (cytotoxicity) [1]: −10 ± 7 nM^2%
- Synergy Volume (cytotoxicity) [1]: 15 ± 8 nM^2%
- Antagonism Volume (HCV genotype 1a replicon [2]): −1 ± 3 nM^2%
- Synergy Volume (HCV genotype 1a replicon [2]): 26 ± 28 nM^2%
- CC50 at 3 days [7]: > 44400 nM
- CC50 ([8]; read-out: CC50): > 44400 nM
- EC50 (HCV genotype 1a replicon [9]; [23]): 15 ± 2.4 nM

Compound: CC(C)C(=O)OCC1O[C@@H](n2ccc(N)nc2=O)[C@](C)(F)[C@@H]1OC(=O)C(C)C (stereo partly shown) [Compound 7]
- Interaction [3]: Moderate Synergy
- Antagonism Volume [3]: −0.2 ± 0.1 nM^2
- Synergy Volume [3]: 51 nM^2 and 51 ± 7.8 nM^2

Compound: NC(=O)c1ncn([C@@H]2O[C@H](CO)[C@@H](O)[C@H]2O)n1 [Ribavirin, 1-β-D-ribofuranosyl-1H-1,2,4-Triazole-3-carboxamide, reference compound]
- EC50 [13]: 6.7 nM
- EC50 [14]: 1 nM
- EC50 [15]: 2.6 nM
- cell viability ([10]; combined with Compound 10, highest combined concentrations tested): greater than 85%
- EC50 [16]: 6.2 nM
- EC50 [17]: 0.6 nM
- EC50 (HCV genotype 1a replicon [11]): 33600 nM
- steady-state plasma concentration [18]: 6 to 11 µM
- Interaction (HCV genotype 1a replicon [12]): Minor
- Antagonism Volume (HCV genotype 1a replicon [2]): −43 nM^2% and −43 ± 20 nM^2%
- Synergy Volume (HCV genotype 1a replicon [2]): 1 ± 1 nM^2%
- Interaction [3]: Moderate Synergy
- Antagonism Volume [3]: −0.5 ± 0.1 nM^2
- Synergy Volume [3]: 61 nM^2 and 61 ± 0.5 nM^2
- EC50 [19]: 1.6 nM
- Interaction [5]: Additive
- Antagonism Volume [5]: −12 ± 9 nM^2
- Synergy Volume [5]: 12 ± 8 nM^2
- EC50 (GT1b wild-type replicon): 6.6 nM
- EC50 [20]: 0.6 nM
- EC50 (GT2a wild-type replicon): 8.3 nM
- CC50 at 3 days [7]: > 88800 nM
- CC50 ([8]; read-out: CC50): > 88800 nM
- EC50 (HCV genotype 1a replicon [9]; [23]): 36500 ± 17500 nM
- EC50 [21]: 0.6 nM

Compound: IFN-α
- Interaction (cytotoxicity) ([1]; in combination with Compound 4): Additivity (Additivity: ≤25 and >−25 nM^2%)
- Antagonism Volume (cytotoxicity) [1]: −7 ± 13 nM^2%
- Synergy Volume (cytotoxicity) [1]: 8 ± 12 nM^2%
- Interaction (HCV genotype 1a replicon [2]): Additivity (Additivity: ≤25 and >−25 nM^2%)
- Antagonism Volume (HCV genotype 1a replicon [2]): 0 ± 0 nM^2%
- Synergy Volume (HCV genotype 1a replicon [2]): 12 ± 6 nM^2%
- Interaction [3]: Minor Synergy
- Antagonism Volume [3]: 0.0 ± 0.0 nM^2
- Synergy Volume [3]: 32 nM^2 and 32 ± 1.4 nM^2
- CC50 ([8]; IFN-α in Units per milliliter): >50^b U/mL
- EC50 (HCV genotype 1a replicon [9]; IFN-α in Units per milliliter): 1.4 ± 0.3^b U/mL
